Data published in US8697739B2, “Bicyclic acetyl-CoA carboxylase inhibitors and uses thereof” (Novartis AG, priority 2010, dated 2014).

Target: T1, human acetyl-CoA carboxylase 2 (ACC2) (Homo sapiens, UniProt O00763)
T1 construct: The cDNA encoding amino acids 144 to 2458 of human acetyl-CoA carboxylase 2; made in house; host or cells: Sf9 insect cells (baculovirus, pFastBac1)
Assay: Acetyl-CoA carboxylase enzyme assay (malonyl-CoA formation by LC/MS/MS)
Type: biochemical
Settings: recombinant human ACC2 (aa 144-2458); read-out: IC50 ACC2
Description: The cDNA encoding amino acids 144 to 2458 of human acetyl-CoA carboxylase 2 (ACC2, GenBank Accession #NM_001093) was cloned into the SalI and NotI sites of pFastBac1 (Invitrogen; Carlsbad, Calif.). The resulting plasmid was used to generate a recombinant ACC2 baculovirus that was amplified and titered according to the protocols in the Bac-to-Bac baculovirus expression system manual (Invitrogen). The titered virus was used to infect Sf9 cells grown in Ex-Cell 420 serum-free medium (JRH Biosciences; Lenexa, Kans.). At 48 hours post-infection, the cells were harvested and stored at −80° C. until purification. ACC2 was purified using ammonium sulfate precipitation and anion exchange chromatography.
The enzymatic assay was run as follows: 30 μL of reaction buffer (100 mM HEPES pH 7.5, 20 mM MgCl2, 20 mM potassium citrate, 2 mM DTT) was added to a 384-well microtiter plate followed by 2 μL of the test compound (or 100% DMSO control). ACC2 protein (10 μL of a 50 nM working solution) was added to plate, which was incubated at room temperature for 15 minutes. A 30 μL addition of substrate solution (50 μM acetyl-CoA, 120 μM ATP, 2 mM KHCO3) was used to initiate the reactions which were quenched with 6% acetic acid (40 μL). ACC catalyzed malonyl-CoA formation was detected by LC/MS/MS using a Cohesive Technologies LX Series multiplex LC/MSIMS system configured with four binary pumps (Agilent Technologies; Palo Alto, Calif.), a dual arm autosampler (Leap Technologies; Cary, N.C.), and one Quattro Micro triple quadrupole mass spectrometer (Waters, Milford, Mass.), all run by Aria Software version 1.5 (Cohesive Technologies; Franklin, Mass.). Four samples were injected (20 μL) onto four Phenosphere NEXT C18 30×2 mm 5 μm columns (Phenomenex; Torrance, Calif.), eluted by four separate pumps, running identical gradients, through a column switching manifold with the one outlet fitted to the electrospray (ESI) source. Malonyl-CoA was eluted with 5 mM ammonium acetate, pH 4.5 (Buffer A) and 100% acetonitrile (Buffer B) via a step gradient. Argon was used as the collision gas and the following species were monitored via MRM detection: malonyl-CoA (853.8>346.9), internal standard (A: [^13C3]-malonyl-CoA, 857>350). The lower limit of detection is 0.3 uM for malonyl-CoA in this assay.

T1 sequence (O00763 144-2458): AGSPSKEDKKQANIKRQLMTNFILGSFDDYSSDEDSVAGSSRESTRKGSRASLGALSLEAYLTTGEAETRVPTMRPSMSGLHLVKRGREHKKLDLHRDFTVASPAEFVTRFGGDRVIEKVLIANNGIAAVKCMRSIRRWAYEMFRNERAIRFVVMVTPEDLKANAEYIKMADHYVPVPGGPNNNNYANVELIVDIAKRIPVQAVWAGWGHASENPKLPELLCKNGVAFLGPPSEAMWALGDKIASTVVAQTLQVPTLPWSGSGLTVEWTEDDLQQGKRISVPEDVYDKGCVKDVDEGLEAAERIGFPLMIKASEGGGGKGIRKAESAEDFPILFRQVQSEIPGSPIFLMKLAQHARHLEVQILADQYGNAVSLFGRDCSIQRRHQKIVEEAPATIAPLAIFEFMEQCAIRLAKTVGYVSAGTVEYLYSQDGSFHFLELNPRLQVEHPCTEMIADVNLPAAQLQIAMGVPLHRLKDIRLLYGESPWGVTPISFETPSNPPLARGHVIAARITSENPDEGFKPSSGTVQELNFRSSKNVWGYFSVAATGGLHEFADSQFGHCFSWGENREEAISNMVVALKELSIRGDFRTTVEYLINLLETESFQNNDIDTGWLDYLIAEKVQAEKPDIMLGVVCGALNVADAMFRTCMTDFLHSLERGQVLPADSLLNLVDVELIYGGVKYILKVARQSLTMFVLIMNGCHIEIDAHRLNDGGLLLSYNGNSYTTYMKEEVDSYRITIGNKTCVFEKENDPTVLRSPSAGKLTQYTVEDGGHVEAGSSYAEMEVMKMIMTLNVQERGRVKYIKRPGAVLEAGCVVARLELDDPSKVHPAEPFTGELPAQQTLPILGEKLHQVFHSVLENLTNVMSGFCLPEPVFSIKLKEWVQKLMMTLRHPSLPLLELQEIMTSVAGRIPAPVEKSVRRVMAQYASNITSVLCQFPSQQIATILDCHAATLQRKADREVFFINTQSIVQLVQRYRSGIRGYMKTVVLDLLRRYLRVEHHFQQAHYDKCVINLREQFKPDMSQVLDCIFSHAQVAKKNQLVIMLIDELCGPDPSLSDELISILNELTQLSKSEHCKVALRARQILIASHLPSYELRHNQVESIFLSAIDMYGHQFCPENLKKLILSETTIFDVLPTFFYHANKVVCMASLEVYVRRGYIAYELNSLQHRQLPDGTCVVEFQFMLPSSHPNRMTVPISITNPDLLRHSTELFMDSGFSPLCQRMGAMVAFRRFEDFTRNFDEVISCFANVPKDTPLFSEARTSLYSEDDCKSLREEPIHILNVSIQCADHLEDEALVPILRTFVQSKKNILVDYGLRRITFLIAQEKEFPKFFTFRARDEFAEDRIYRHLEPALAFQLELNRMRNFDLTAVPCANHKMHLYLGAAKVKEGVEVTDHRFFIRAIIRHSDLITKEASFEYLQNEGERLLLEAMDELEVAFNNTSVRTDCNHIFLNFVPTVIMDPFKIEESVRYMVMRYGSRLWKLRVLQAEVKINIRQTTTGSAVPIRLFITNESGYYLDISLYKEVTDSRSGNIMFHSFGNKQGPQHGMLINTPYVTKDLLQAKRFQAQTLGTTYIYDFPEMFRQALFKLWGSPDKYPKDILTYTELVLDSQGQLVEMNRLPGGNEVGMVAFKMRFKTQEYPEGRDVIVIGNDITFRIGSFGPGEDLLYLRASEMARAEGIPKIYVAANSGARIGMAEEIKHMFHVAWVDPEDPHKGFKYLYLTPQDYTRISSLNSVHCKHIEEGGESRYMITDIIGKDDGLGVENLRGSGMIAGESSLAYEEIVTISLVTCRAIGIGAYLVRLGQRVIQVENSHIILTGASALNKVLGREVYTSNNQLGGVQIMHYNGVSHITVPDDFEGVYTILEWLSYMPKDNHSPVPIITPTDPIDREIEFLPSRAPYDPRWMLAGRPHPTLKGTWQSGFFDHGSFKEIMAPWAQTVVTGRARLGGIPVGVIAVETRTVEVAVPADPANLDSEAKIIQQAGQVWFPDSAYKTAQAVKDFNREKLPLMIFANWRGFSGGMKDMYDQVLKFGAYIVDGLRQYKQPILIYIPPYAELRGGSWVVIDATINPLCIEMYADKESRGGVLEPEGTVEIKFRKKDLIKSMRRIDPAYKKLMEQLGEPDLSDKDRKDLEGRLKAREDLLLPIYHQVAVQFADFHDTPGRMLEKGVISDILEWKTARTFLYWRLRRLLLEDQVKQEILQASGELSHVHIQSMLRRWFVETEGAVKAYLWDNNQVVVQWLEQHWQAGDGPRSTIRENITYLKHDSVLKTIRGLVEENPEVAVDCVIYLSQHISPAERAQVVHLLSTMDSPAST

| IC50 [nM] | Compound |
| --- | --- |
| > 35000 | CC(NC(=O)[C@H]1CC[C@H](NS(=O)(=O)c2cnc3ccccc3c2)CC1)c1ccc(C(F)(F)F)cc1 (some centres unmarked) [Example 45, (1r,4r)-4-(quinoline-3-sulfonamido)-N-(1-(4-(trifluoromethyl)phenyl)ethyl)cyclohexanecarboxamide] |
| 59 | C[C@@H](NC(=O)[C@H]1CC[C@H](NS(=O)(=O)c2cnc3c(c2)N(C)CCN3)CC1)c1ccc(F)cc1 [Example 130, (1r,4R)-N-((R)-1-(4-fluorophenyl)ethyl)-4-(1-methyl-1,2,3,4-tetrahydropyrido[3,2-b]pyrazine-7-sulfonamido)cyclohexanecarboxamide] |
| 20 | CCOc1ccc2cc(S(=O)(=O)N[C@H]3CC[C@H](C(=O)N[C@@H](c4ccccc4)C(C)(C)O)CC3)ccc2n1 [Example 206, (1r,4S)-4-(2-ethoxyquinoline-6-sulfonamido)-N-((S)-2-hydroxy-2-methyl-1-phenylpropyl)cyclohexanecarboxamide] |
| 210 | Cn1c(C2CC2)c(C#N)c2ccc(S(=O)(=O)N[C@H]3CC[C@H](C(=O)N4CCCCC4)CC3)cc21 [Example 381, 3-cyano-2-cyclopropyl-1-methyl-N-((1r,4r)-4-(piperidine-1-carbonyl)cyclohexyl)-1H-indole-6-sulfonamide] |
| 25 | Cc1ccccc1-c1cc2ccc(S(=O)(=O)N[C@H]3CC[C@H](C(=O)N4CCCC4c4ccccc4)CC3)cc2[nH]1 (some centres unmarked) [Example 335, N-((1r,4r)-4-(2-phenylpyrrolidine-1-carbonyl)cyclohexyl)-2-o-tolyl-1H-indole-6-sulfonamide] |
| 971 | COC(=O)c1cccc(-c2nc3cc(S(=O)(=O)N[C@H]4CC[C@H](c5nnc(C(C)(C)C)o5)CC4)ccc3[nH]2)c1 [Example 608, methyl 3-(5-(N-((1r,4r)-4-(5-tert-butyl-1,3,4-oxadiazol-2-yl)cyclohexyl)sulfamoyl)-1H-benzo[d]imidazol-2-yl)benzoate] |
| 350 | COC(=O)CN1CCCc2ccc(S(=O)(=O)N[C@H]3CC[C@H](C(=O)N[C@H](C)c4ccc(F)cc4)CC3)cc21 [Example 164, methyl 2-(7-(N-((1R,4r)-4-((R)-1-(4-fluorophenyl)ethylcarbamoyl)cyclohexyl)sulfamoyl)-3,4-dihydroquinolin-1(2H)-yl)acetate] |
| 1110 | CC(C)(C)OC(=O)c1ccc(NS(=O)(=O)c2ccc3[nH]c(-c4ccccc4)nc3c2)cc1 [Example 489, tert-butyl 4-(2-phenyl-1H-benzo[d]imidazole-5-sulfonamido)benzoate] |
| 45 | C[C@@H](NC(=O)[C@H]1CC[C@H](NS(=O)(=O)c2ccc3[nH]c(-c4ccccc4)cc3c2)CC1)c1ccc(F)cc1 [Example 102, (1r,4R)-N-((R)-1-(4-fluorophenyl)ethyl)-4-(2-phenyl-1H-indole-5-sulfonamido)cyclohexanecarboxamide] |
| > 35000 | C[C@H](NC(=O)[C@H]1CC[C@@H](NS(=O)(=O)c2cnc3c(c2)NCCN3)CC1)c1ccc(F)cc1 [Example 198, (1s,4S)-N-((R)-1-(4-fluorophenyl)ethyl)-4-(1,2,3,4-tetrahydropyrido[3,2-b]pyrazine-7-sulfonamido)cyclohexanecarboxamide] |

More lines, now with the values behind:

| Compound | IC50 [nM] |
| --- | --- |
| Cc1nc2cc(S(=O)(=O)N[C@H]3CC[C@H](C(=O)N[C@H](C)c4ccccc4)CC3)ccc2[nH]1 [Example 614, (1r,4R)-4-(2-methyl-1H-benzo[d]imidazole-5-sulfonamido)-N-((R)-1-phenylethyl)cyclohexanecarboxamide] | 142 |
| CCOc1ccc2cc(S(=O)(=O)N[C@H]3CC[C@H](C(=O)N[C@@H](c4ccccc4)[C@@H](C)O)CC3)ccc2n1 [Example 37, (1r,4S)-4-(2-ethoxyquinoline-6-sulfonamido)-N-((1S,2R)-2-hydroxy-1-phenylpropyl)cyclohexanecarboxamide] | 75 |
| C[C@@H](NC(=O)[C@H]1CC[C@H](NS(=O)(=O)c2ccc3[nH]c(C4CC4)nc3c2)CC1)c1ccccc1 [Example 277, (1r,4R)-4-(2-cyclopropyl-1H-benzo[d]imidazole-5-sulfonamido)-N-((R)-1-phenylethyl)cyclohexanecarboxamide] | 80 |
| Cc1ccccc1-c1cc2ccc(S(=O)(=O)N[C@H]3CC[C@H](C(=O)N4CCOCC4)CC3)cc2[nH]1 [Example 136, N-((1R,4r)-4-(morpholine-4-carbonyl)cyclohexyl)-2-o-tolyl-1H-indole-6-sulfonamide] | 187 |
| CC(C)N(C)C(=O)[C@H]1CC[C@H](NS(=O)(=O)c2ccc3[nH]c(-c4ccc(N5CCN(C)CC5)cc4)nc3c2)CC1 [Example 564, (1r,4r)-N-isopropyl-N-methyl-4-(2-(4-(4-methylpiperazin-1-yl)phenyl)-1H-benzo[d]imidazole-5-sulfonamido)cyclohexanecarboxamide] | 27 |
| C[C@@H]1COCCN1C(=O)[C@H]1CC[C@H](NS(=O)(=O)c2ccc3c(C#N)c(C4CC4)n(C)c3c2)CC1 [Example 413, 3-cyano-2-cyclopropyl-1-methyl-N-((1R,4r)-4-((R)-3-methylmorpholine-4-carbonyl)cyclohexyl)-1H-indole-6-sulfonamide] | 50 |
| CC(C)OC(=O)c1ccc(NS(=O)(=O)c2ccc3[nH]c(Nc4ccc(-n5cccn5)cc4)nc3c2)cc1 [Example 545, isopropyl 4-(2-(4-(1H-pyrazol-1-yl)phenylamino)-1H-benzo[d]imidazole-5-sulfonamido)benzoate] | 623 |
| O=C(NCC1CC1)[C@H]1CC[C@H](NS(=O)(=O)c2ccc3[nH]c(-c4ccccc4)nc3c2)CC1 [Example 637, (1r,4r)-N-(cyclopropylmethyl)-4-(2-phenyl-1H-benzo[d]imidazole-5-sulfonamido)cyclohexanecarboxamide] | 372 |
| COCCc1ccc(-c2cc3ccc(S(=O)(=O)N[C@H]4CC[C@H](C(=O)N5CCOC[C@@H]5C5CC5)CC4)cc3n2C)cc1 [Example 457, N-((1S,4r)-4-((S)-3-cyclopropylmorpholine-4-carbonyl)cyclohexyl)-2-(4-(2-methoxyethyl)phenyl)-1-methyl-1H-indole-6-sulfonamide] | < 10 |
| Cc1ccccc1-c1cc2ccc(S(=O)(=O)N[C@H]3CC[C@H](C(=O)N4CCOC[C@@H]4C)CC3)cc2[nH]1 [Example 482, N-((1S,4r)-4-((S)-3-methylmorpholine-4-carbonyl)cyclohexyl)-2-o-tolyl-1H-indole-6-sulfonamide] | 90 |
| Cn1c(-c2ccccc2)cc2ccc(S(=O)(=O)NC3CCC(C(=O)NC4CCCCNC4=O)CC3)cc21 (centres unmarked) [Example 435, (1r,4r)-4-(1-methyl-2-phenyl-1H-indole-6-sulfonamido)-N-(2-oxoazepan-3-yl)cyclohexanecarboxamide] | 20 |
| Cn1c(-c2ccc(CCC(=O)O)cc2)cc2ccc(S(=O)(=O)N[C@H]3CC[C@H](C(=O)N4CCOC[C@@H]4C4CC4)CC3)cc21 [Example 476, 3-(4-(6-(N-((1S,4r)-4-((S)-3-cyclopropylmorpholine-4-carbonyl)cyclohexyl)sulfamoyl)-1-methyl-1H-indol-2-yl)phenyl)propanoic acid] | < 10 |
| C[C@@H](NC(=O)[C@H]1CC[C@H](NC(=O)Nc2ccc3[nH]c(-c4ccccc4)nc3c2)CC1)c1ccc(F)cc1 [Example 41, (1r,4R)-N-((R)-1-(4-fluorophenyl)ethyl)-4-(3-(2-phenyl-1H-benzo[d]imidazol-5-yl)ureido)cyclohexanecarboxamide] | 4640 |
| C[C@@H](NC(=O)[C@H]1CC[C@H](NS(=O)(=O)c2ccc3c(c2)OCCO3)CC1)c1ccc(F)cc1 [Example 123, (1r,4R)-4-(2,3-dihydrobenzo[b][1,4]dioxine-6-sulfonamido)-N-((R)-1-(4-fluorophenyl)ethyl)cyclohexanecarboxamide] | 450 |
| C[C@@H](NC(=O)[C@H]1CC[C@H](NS(=O)(=O)c2ccc3c(c2)CCC(C)(C)O3)CC1)c1ccc(F)cc1 [Example 144, (1r,4R)-4-(2,2-dimethylchroman-6-sulfonamido)-N-((R)-1-(4-fluorophenyl)ethyl)cyclohexanecarboxamide] | 314 |
| CC(C)(C)OC(=O)N1CCN(C(=O)[C@H]2CC[C@H](NS(=O)(=O)c3ccc4c(c3)CCC4)CC2)[C@@H](c2ccccc2)C1 [Example 241, (S)-tert-butyl 4-((1r,4S)-4-(2,3-dihydro-1H-indene-5-sulfonamido)cyclohexanecarbonyl)-3-phenylpiperazine-1-carboxylate] | 25 |
